Numbered stars: 1 amine (or outer) side, 2 acyl side, 3 side chain; on linkers, the order of the positions; unused ones are H or OH. Bridge positions count the residues as written; N and C are the ends. Square brackets hold non-standard residues; d marks the D form. Side chains are listed from the residue outwards. Peptide text beside a SMILES is read from it. * marks the point of attachment. C18 diacid = O=C(O)CCCCCCCCCCCCCCCCC(=O)*; γGlu = O=C(O)[C@H](CCC(=O)[*:2])N[*:1]; αMeF = C[C@](N)(Cc1ccccc1)C(=O)O; Dab = NCC[C@H](N)C(=O)O; Aib = CC(C)(N)C(=O)O
experiment: Thioflavin T fibrillation assay; assay type: physicochemical; settings: 1 mg/mL in 25 mM sodium acetate buffer pH 4.0, 37° C., 6 days, orbital shaking; >144 h = no increase
Description: Peptide aggregation that form fibrils is an indication of physical instability. Fibril formation in solution poses a significant risk for the stability of injectable peptide drug products. Thioflavin T (ThT) fibrillation assay is a useful tool to assess the aggregation kinetics of a peptide or protein under accelerated and stressed conditions that can be used to forecast the long-term viability of a compound in solution. ThT can selectively bind amyloid fibrils and the resultant complex emits strong fluorescence signal at 482 nm when excited at 450 nm (Anal Biochem. 1989 March; 177 (2): 244-9). Monitoring of the change in fluorescence signal is an established method to study the fibril forming potential of peptides and proteins. ThT (purchased from Sigma Aldrich) stock solution is prepared by dissolving the ThT powder in Milli-Q water and filtered to obtain a 0.25 mM solution. The concentration of the solution is measured at 412 nm using an extinction coefficient of 36 mM-1 cm-1. Test peptides were dissolved at 1 mg/mL in 25 mM sodium acetate buffer pH 4.0. 100 μL aliquot of peptide solution and 5 μL aliquot of ThT solution were placed in a clear bottom black fluorescence 96-well plate. 5 replicates of each test samples were placed in the same row of the plate. Buffer was placed in control wells for baseline correction. All empty wells were filled with water to prevent evaporation. The plate was sealed with aluminium seal and placed in fluorescence plate reader and incubated for 6 days at 37° C. with intermittent orbital shaking at 500 to 750 rpm. The fluorescence intensity was measured every 30 min using excitation at 444 nm and emission at 480 nm. The fibril forming potential of the test peptides was determined by measuring the average time taken to detect an increase in baseline corrected fluorescence intensity.

SMILES | Time taken to detect increase in fluorescence intensity
CC[C@H](C)[C@H](NC(=O)[C@@H]1CCCN1C(=O)CNC(=O)[C@H](Cc1ccccc1)NC(=O)[C@H](CC(N)=O)NC(=O)[C@H](CC(N)=O)NC(=O)[C@H](CO)NC(=O)[C@H](CO)NC(=O)[C@H](Cc1c[nH]cn1)NC(=O)[C@@H](NC(=O)[C@H](CC(C)C)NC(=O)[C@H](Cc1ccccc1)NC(=O)[C@H](CCN)NC(=O)[C@H](C)NC(=O)[C@H](CC(C)C)NC(=O)[C@H](CCCNC(=N)N)NC(=O)[C@H](CCC(N)=O)NC(=O)[C@@H](NC(=O)[C@H](C)NC(=O)[C@@H]1CSSC[C@H](NC(=O)[C@H](CCCCN)NC(=O)[C@@H](N)CCCCNC(=O)CC[C@H](NC(=O)CCCCCCCCCCCCCCCCC(=O)O)C(=O)O)C(=O)N[C@@H](CC(N)=O)C(=O)N[C@@H]([C@@H](C)O)C(=O)N[C@@H](C)C(=O)N[C@@H]([C@@H](C)O)C(=O)N1)[C@@H](C)O)C(C)C)C(=O)N[C@@H](CC(C)C)C(=O)N1CCC[C@H]1C(=O)N1CCC[C@H]1C(=O)N[C@H](C(=O)N[C@@H](CC(N)=O)C(=O)N[C@H](C(=O)NCC(=O)N[C@@H](CO)C(=O)N[C@@H](CC(N)=O)C(=O)N[C@H](C(=O)N[C@@H](Cc1ccc(O)cc1)C(N)=O)[C@@H](C)O)C(C)C)[C@@H](C)O [Peptide 33] (H-K([γGlu-C18 diacid])KCNTATCATQRLA[Dab]FLVHSSNNFGPILPPTNVGSNTY-NH2; disulfide 3-8; N-terminus assumed) | >144 h
CC[C@H](C)[C@H](NC(=O)[C@H](C)NC(=O)[C@@H]1CCCN1C(=O)[C@H](Cc1ccccc1)NC(=O)[C@H](CC(N)=O)NC(=O)C(C)(C)NC(=O)[C@H](CO)NC(=O)[C@H](CO)NC(=O)[C@H](Cc1c[nH]cn1)NC(=O)[C@@H](NC(=O)[C@H](CC(C)C)NC(=O)[C@H](Cc1ccccc1)NC(=O)[C@H](CC(N)=O)NC(=O)[C@H](C)NC(=O)[C@H](CC(C)C)NC(=O)[C@H](CCCNC(=N)N)NC(=O)[C@H](CCC(N)=O)NC(=O)[C@@H](NC(=O)[C@H](C)NC(=O)[C@@H]1CSSC[C@H](NC(=O)[C@@H](N)CCCCNC(=O)CC[C@H](NC(=O)CC[C@H](NC(=O)CCCCCCCCCCCCCCCCC(=O)O)C(=O)O)C(=O)O)C(=O)N[C@@H](CC(N)=O)C(=O)N[C@@H]([C@@H](C)O)C(=O)N[C@@H](C)C(=O)N[C@@H]([C@@H](C)O)C(=O)N1)[C@@H](C)O)C(C)C)C(=O)N[C@@H](CC(C)C)C(=O)N[C@@H](CO)C(=O)N1CCC[C@H]1C(=O)N[C@H](C(=O)N[C@@H](CC(N)=O)C(=O)N[C@H](C(=O)NCC(=O)N[C@@H](CO)C(=O)N[C@@H](CC(N)=O)C(=O)N[C@H](C(=O)N[C@@H](Cc1ccc(O)cc1)C(N)=O)[C@@H](C)O)C(C)C)[C@@H](C)O [Peptide 9, K(γE-γE-C18diacid)[CNTATC]ATQRLANFLVHSS(Aib)NFPAILSPTNVGSNTY-amide] (H-K([γGlu-γGlu-C18 diacid])CNTATCATQRLANFLVHSS[Aib]NFPAILSPTNVGSNTY-NH2; disulfide 2-7; N-terminus assumed) | 7 h

Continued, values first:

Time taken to detect increase in fluorescence intensity | SMILES
>144 h | CC[C@H](C)[C@H](NC(=O)[C@@H]1CCCN1C(=O)CNC(=O)[C@](C)(Cc1ccccc1)NC(=O)[C@H](CC(N)=O)NC(=O)[C@H](CC(N)=O)NC(=O)[C@H](CO)NC(=O)[C@H](CO)NC(=O)[C@H](Cc1c[nH]cn1)NC(=O)[C@@H](NC(=O)[C@H](CC(C)C)NC(=O)[C@H](Cc1ccccc1)NC(=O)[C@H](CC(N)=O)NC(=O)[C@H](C)NC(=O)[C@H](CC(C)C)NC(=O)[C@H](CCCNC(=N)N)NC(=O)[C@H](CCC(N)=O)NC(=O)[C@@H](NC(=O)[C@H](C)NC(=O)[C@@H]1CSSC[C@H](NC(=O)[C@@H](N)CCCCNC(=O)CC[C@H](NC(=O)CC[C@H](NC(=O)CCCCCCCCCCCCCCCCC(=O)O)C(=O)O)C(=O)O)C(=O)N[C@@H](CC(N)=O)C(=O)N[C@@H]([C@@H](C)O)C(=O)N[C@@H](C)C(=O)N[C@@H]([C@@H](C)O)C(=O)N1)[C@@H](C)O)C(C)C)C(=O)N[C@@H](CC(C)C)C(=O)N1CCC[C@H]1C(=O)N1CCC[C@H]1C(=O)N[C@H](C(=O)N[C@@H](CC(N)=O)C(=O)N[C@H](C(=O)NCC(=O)N[C@@H](CO)C(=O)N[C@@H](CCCNC(=N)N)C(=O)N[C@H](C(=O)N[C@@H](Cc1ccc(O)cc1)C(N)=O)[C@@H](C)O)C(C)C)[C@@H](C)O [Peptide 21, K(γE-γE-C18diacid)[CNTATC]ATQRLANFLVHSSNN(αMePhe)GPILPPTNVGSRTY-amide] (H-K([γGlu-γGlu-C18 diacid])CNTATCATQRLANFLVHSSNN[αMeF]GPILPPTNVGSRTY-NH2; disulfide 2-7; N-terminus assumed)
7 h | CC[C@H](C)[C@H](NC(=O)[C@H](C)NC(=O)[C@@H]1CCCN1C(=O)[C@H](Cc1ccccc1)NC(=O)[C@H](CC(N)=O)NC(=O)[C@H](CCN)NC(=O)[C@H](CO)NC(=O)[C@H](CO)NC(=O)[C@H](Cc1c[nH]cn1)NC(=O)[C@@H](NC(=O)[C@H](CC(C)C)NC(=O)[C@H](Cc1ccccc1)NC(=O)[C@H](CC(N)=O)NC(=O)[C@H](C)NC(=O)[C@H](CC(C)C)NC(=O)[C@H](CCCNC(=N)N)NC(=O)[C@H](CCC(N)=O)NC(=O)[C@@H](NC(=O)[C@H](C)NC(=O)[C@@H]1CSSC[C@H](NC(=O)[C@@H](N)CCCCNC(=O)CC[C@H](NC(=O)CC[C@H](NC(=O)CCCCCCCCCCCCCCCCC(=O)O)C(=O)O)C(=O)O)C(=O)N[C@@H](CC(N)=O)C(=O)N[C@@H]([C@@H](C)O)C(=O)N[C@@H](C)C(=O)N[C@@H]([C@@H](C)O)C(=O)N1)[C@@H](C)O)C(C)C)C(=O)N[C@@H](CC(C)C)C(=O)N[C@@H](CO)C(=O)N1CCC[C@H]1C(=O)N[C@H](C(=O)N[C@@H](CC(N)=O)C(=O)N[C@H](C(=O)NCC(=O)N[C@@H](CO)C(=O)N[C@@H](CC(N)=O)C(=O)N[C@H](C(=O)N[C@@H](Cc1ccc(O)cc1)C(N)=O)[C@@H](C)O)C(C)C)[C@@H](C)O [Peptide 8, K(γE-γE-C18diacid)[CNTATC]ATQRLANFLVHSS(Dab)NFPAILSPTNVGSNTY-amide] (H-K([γGlu-γGlu-C18 diacid])CNTATCATQRLANFLVHSS[Dab]NFPAILSPTNVGSNTY-NH2; disulfide 2-7; N-terminus assumed)
>144 h | CC[C@H](C)[C@H](NC(=O)[C@@H]1CCCN1C(=O)CNC(=O)[C@H](Cc1ccccc1)NC(=O)[C@H](CC(N)=O)NC(=O)C(C)(C)NC(=O)[C@H](CO)NC(=O)[C@H](CO)NC(=O)[C@H](Cc1c[nH]cn1)NC(=O)[C@H](CCCNC(=N)N)NC(=O)[C@H](CC(C)C)NC(=O)[C@H](Cc1ccccc1)NC(=O)[C@H](CC(N)=O)NC(=O)[C@H](C)NC(=O)[C@H](CC(C)C)NC(=O)[C@H](CCCNC(=N)N)NC(=O)[C@H](CCC(N)=O)NC(=O)[C@@H](NC(=O)[C@H](C)NC(=O)[C@@H]1CSSC[C@H](NC(=O)[C@@H](N)CCCCNC(=O)CC[C@H](NC(=O)CCCCCCCCCCCCCCCCC(=O)O)C(=O)O)C(=O)N[C@@H](CC(N)=O)C(=O)N[C@@H]([C@@H](C)O)C(=O)N[C@@H](C)C(=O)N[C@@H]([C@@H](C)O)C(=O)N1)[C@@H](C)O)C(=O)N[C@@H](CC(C)C)C(=O)N1CCC[C@H]1C(=O)N1CCC[C@H]1C(=O)N[C@H](C(=O)N[C@@H](CCC(=O)O)C(=O)N[C@H](C(=O)NCC(=O)N[C@@H](CO)C(=O)N[C@@H](CC(N)=O)C(=O)N[C@H](C(=O)N[C@@H](Cc1ccc(O)cc1)C(N)=O)[C@@H](C)O)C(C)C)[C@@H](C)O [Peptide 44, K(γE-C18diacid)[CNTATC]ATQRLANFLRHSS(Aib)NFGPILPPTEVGSNTY-amide] (H-K([γGlu-C18 diacid])CNTATCATQRLANFLRHSS[Aib]NFGPILPPTEVGSNTY-NH2; disulfide 2-7; N-terminus assumed)
>144 h | CC[C@H](C)[C@H](NC(=O)[C@@H]1CCCN1C(=O)CNC(=O)[C@H](Cc1ccccc1)NC(=O)[C@H](CC(N)=O)NC(=O)C(C)(C)NC(=O)[C@H](CO)NC(=O)[C@H](CO)NC(=O)[C@H](Cc1c[nH]cn1)NC(=O)[C@H](CCCNC(=N)N)NC(=O)[C@H](CC(C)C)NC(=O)[C@H](Cc1ccccc1)NC(=O)[C@H](CC(N)=O)NC(=O)[C@H](C)NC(=O)[C@H](CC(C)C)NC(=O)[C@H](CCCNC(=N)N)NC(=O)[C@H](CCC(N)=O)NC(=O)[C@@H](NC(=O)[C@H](C)NC(=O)[C@@H]1CSSC[C@H](NC(=O)[C@H](CCCCN)NC(=O)[C@@H](N)CCCCNC(=O)CC[C@H](NC(=O)CC[C@H](NC(=O)CCCCCCCCCCCCCCCCC(=O)O)C(=O)O)C(=O)O)C(=O)N[C@@H](CC(N)=O)C(=O)N[C@@H]([C@@H](C)O)C(=O)N[C@@H](C)C(=O)N[C@@H]([C@@H](C)O)C(=O)N1)[C@@H](C)O)C(=O)N[C@@H](CC(C)C)C(=O)N1CCC[C@H]1C(=O)N1CCC[C@H]1C(=O)N[C@H](C(=O)N[C@@H](CC(N)=O)C(=O)N[C@H](C(=O)NCC(=O)N[C@@H](CO)C(=O)N[C@@H](CC(N)=O)C(=O)N[C@H](C(=O)N[C@@H](Cc1ccc(O)cc1)C(N)=O)[C@@H](C)O)C(C)C)[C@@H](C)O [Peptide 66, K(γE-γE-C18diacid)K[CNTATC]ATQRLANFLRHSS(Aib)NFGPILPPTNVGSNTY-amide] (H-K([γGlu-γGlu-C18 diacid])KCNTATCATQRLANFLRHSS[Aib]NFGPILPPTNVGSNTY-NH2; disulfide 3-8; N-terminus assumed)

— patent publication US12371464B2, “Polypeptides and uses thereof” (MEDIMMUNE LIMITED, priority 2020, dated 2025)
